The subject of experiment [1] is HCV GT1a(H77) replicon. The experiment can be described thus: HCV replicon luciferase reporter assay, genotype 1a. Format: cell-based, HCV genotype 1a. The following applies: Hepatitis C virus, 72 h, HUH-7 cells, Renilla luciferase, 3 days incubation. The text has this: A stable HCV GT1a(H77) replicon luciferase reporter cell line (Yanagi M, Purcell RH, Emerson S U, et al. Transcripts from a single full-length cDNA clone of hepatitis C virus are infectious when directly transfected into the liver of a chimpanzee. Proc Natl Acad Sci USA 1997; 94(16):8738-8743) was generated as described previously for the genotype 1b(Con1) replicon luciferase cell line. The replicon construct was modified by introducing mutations into the genes encoding the NS3 helicase domain (proline replaced by leucine at position 1496) and NS5A (serine to isoleucine at position 2204) to improve replication in cell culture.
(§1) HCV replicon luciferase assays were developed to monitor the inhibitory effects of compounds described in the disclosure on HCV genotypes 1a and 1b viral replication. HUH-7 cells, constitutively expressing the HCV replicon, were grown in Dulbecco's Modified Eagle Media (DMEM) (Gibco-BRL) containing 10% Fetal calf serum (FCS) (Sigma) and 1 mg/mL G418 (Gibco-BRL). Compounds were serially diluted 3 folds in DMSO for a twenty-point titration and subsequently transferred to sterile 384-well tissue-culture treated plates (Corning cat #3571). The plates were then seeded with 50 μL of cells at a density of 3.0×10^3 cells/well in DMEM containing 4% FCS (final DMSO concentration at 0.5%). After 3 days incubation at 37° C., cells were analyzed for Renilla Luciferase activity using the EnduRen as substrate (Promega cat #E6485). The EnduRen substrate was diluted in DMEM and then added to the plates to a final concentration of 7.5 μM. The plates were incubated for 2 hrs at 37° C. and then read immediately for 30 seconds with Viewlux Imager (PerkinElmer) using a luminescence program. To assess cytotoxicity of compounds, CC50 values were generated by multiplexing the EnduRen-containing plates with Cell Titer-Blue (Promega, cat #G8082). Cell-Titer Blue (3 μL) was added to each well and incubated for 8 hrs at 37° C. The fluorescence signal from each well was read, with an excitation wavelength at 525/10 nm and an emission wavelength of 598/10 nm, using the Viewlux Imager.
(§2) The EC50 values for compounds were calculated by using a four-parameter logistic equation: y=A+[…])/(1+((C/x)^D))), where A and B denotes minimal and maximal % inhibition, respectively, C is the EC50, D is the hill slope and x represents compound concentration.
(A replicon is a self-replicating genome or part of one, used to study replication in cells.)

Experiment [2] concerns HCV GT1b(Con1) replicon. As to the kind of experiment: HCV replicon luciferase reporter assay, genotype 1b. Format: cell-based, HCV genotype 1b. The following applies: Hepatitis C virus, 72 h, HUH-7 cells, Renilla luciferase, 3 days incubation.
Text: An HCV GT1b(Con1) replicon cell system was established as described by Lohmann V, Korner F, Koch J, Herian U, Theilmann L, Bartenschlager R., Science 285(5424):110-3 (1999) and modified to introduce a luciferase reporter (Krieger N, Lohmann V, and Bartenschlager R, J. Virol. 75(10):4614-4624 (2001)). cDNA encoding a humanized form of the Renilla luciferase gene, and a linker sequence fused directly to the 3′-end of the luciferase gene were introduced into the replicon construct using an Asc1 restriction site located in core, directly upstream of the neomycin marker gene. The adaptive mutation at position 1179 (serine to isoleucine) was also introduced (Blight K J, Kolykhalov, A A, Rice, C M, Science 290(5498):1972-1974). A stable cell line constitutively expressing this HCV replicon construct was generated by first linearizing plasmid DNAs with ScaI. RNA transcripts were synthesized in vitro using the T7 MegaScript transcription kit (Ambion, Austin, Tex.) according to manufacturer's directions. In vitro transcripts of the cDNA were transfected into the human hepatoma cell line, HUH-7. […] Resulting cell lines were characterized for positive and negative strand RNA production and protein production over time.
as §1, §2

pEC50: −log10 of the molar value. Where two headings read alike, the source gives them in different places.

The term pEC50 denotes the EC50 on a negative log10 scale, so that one unit is a factor of ten. On to `COc1cccc(-c2cc(O[C@@H]3C[C@H]4C(=O)N[C@]5(C(=O)NS(=O)(=O)C6(C)CC6)C[C@H]5/C=C\CCC(C)C[C@@H](C)[C@H](NC(=O)OC(C)(C)C(F)(F)F)C(=O)N4C3)cc(-c3ccc(OC(C)C)cc3)n2)n1` (stereo in doubt) [Compound 1012, 1,1,1-trifluoro-2-methylpropan-2-yl ((2R,6S,7R,9R,13aS,14aR,16aS,Z)-2-((6-(4-isopropoxyphenyl)-6′-methoxy-[2,2′-bipyridin]-4-yl)oxy)-7,9-dimethyl-14a-(((1-methylcyclopropyl)sulfonyl)carbamoyl)-5,16-dioxo-1,2,3,5,6,7,8,9,10,11,13a,14,14a,15,16,16a-hexadecahydrocyclopropa[e]pyrrolo[1,2-a][1,4]diazacyclopentadecin-6-yl)carbamate], for which the pEC50 in experiment [1] (read-out: LE_1a (EC50, range)) is 7.46 to 8.30; in experiment [2] (read-out: LE_1b (EC50, range)) it was 7.46 to 8.30.

`CC(C)Oc1ccc(-c2cc(O[C@@H]3C[C@H]4C(=O)N[C@]5(C(=O)NS(=O)(=O)C6(C)CC6)C[C@H]5/C=C\CC[C@@H](C)C[C@@H](C)[C@H](NC(=O)OC(C)(C)C(F)(F)F)C(=O)N4C3)cc(-c3cnccn3)n2)cc1` [Compound 1001, 1,1,1-trifluoro-2-methylpropan-2-yl ((2R,6S,7R,9R,13aS,14aR,16aS,Z)-2-((2-(4-isopropoxyphenyl)-6-(pyrazin-2-yl)pyridin-4-yl)oxy)-7,9-dimethyl-14a-(((1-methylcyclopropyl)sulfonyl)carbamoyl)-5,16-dioxo-1,2,3,5,6,7,8,9,10,11,13a,14,14a,15,16,16a-hexadecahydrocyclopropa[e]pyrrolo[1,2-a][1,4]diazacyclopentadecin-6-yl)carbamate]: the pEC50 in experiment [1] (read-out: LE_1a (EC50, range)) is 8.30 to 9.00; in experiment [2] (read-out: LE_1b (EC50, range)), 9.00 to 9.29.

`CC(C)Oc1ccc(-c2cc(O[C@@H]3C[C@H]4C(=O)N[C@]5(C(=O)NS(=O)(=O)C6(C)CC6)C[C@H]5/C=C\CC[C@H](C)C[C@@H](C)[C@H](NC(=O)OC(C)(C)C(F)(F)F)C(=O)N4C3)cc(-c3cnccn3)n2)cc1` [Compound 1002, 1,1,1-trifluoro-2-methylpropan-2-yl ((2R,6S,7R,9S,13aS,14aR,16aS,Z)-2-((2-(4-isopropoxyphenyl)-6-(pyrazin-2-yl)pyridin-4-yl)oxy)-7,9-dimethyl-14a-(((1-methylcyclopropyl)sulfonyl)carbamoyl)-5,16-dioxo-1,2,3,5,6,7,8,9,10,11,13a,14,14a,15,16,16a-hexadecahydrocyclopropa[e]pyrrolo[1,2-a][1,4]diazacyclopentadecin-6-yl)carbamate]: the pEC50 is 7.23 in experiment [1] (read-out: LE_1a (EC50)); 6.44 to 7.46 in experiment [1] (read-out: LE_1a (EC50, range)); 7.93 in experiment [2] (read-out: LE_1b (EC50)); 7.46 to 8.30 in experiment [2] (read-out: LE_1b (EC50, range)).

Regarding `CC(C)Oc1ccc(-c2cc(O[C@@H]3C[C@H]4C(=O)N[C@]5(C(=O)NS(=O)(=O)C6(C)CC6)C[C@H]5/C=C\CC[C@@H](C)C[C@@H](C)[C@H](NC(=O)OC(C)(C)C(F)(F)F)C(=O)N4C3)cc(-c3cncs3)n2)cc1` [Compound 1003, 1,1,1-trifluoro-2-methylpropan-2-yl ((2R,6S,7R,9R,13aS,14aR,16aS,Z)-2-((2-(4-isopropoxyphenyl)-6-(thiazol-5-yl)pyridin-4-yl)oxy)-7,9-dimethyl-14a-(((1-methylcyclopropyl)sulfonyl)carbamoyl)-5,16-dioxo-1,2,3,5,6,7,8,9,10,11,13a,14,14a,15,16,16a-hexadecahydrocyclopropa[e]pyrrolo[1,2-a][1,4]diazacyclopentadecin-6-yl)carbamate], the pEC50 in experiment [1] (read-out: LE_1a (EC50, range)) is 8.30 to 9.00; in experiment [2] (read-out: LE_1b (EC50, range)) it was 8.30 to 9.00.

In the case of `C[C@@H]1CC/C=C\[C@@H]2C[C@@]2(C(=O)NS(=O)(=O)C2(C)CC2)NC(=O)[C@@H]2C[C@@H](Oc3ncccc3C(F)(F)F)CN2C(=O)[C@@H](NC(=O)OC(C)(C)C)[C@H](C)C1` [Compound 1065, tert-butyl ((2R,6S,7R,9R,13aS,14aR,16aS,Z)-7,9-dimethyl-14a-(((1-methylcyclopropyl)sulfonyl)carbamoyl)-5,16-dioxo-2-((3-(trifluoromethyl)pyridin-2-yl)oxy)-1,2,3,5,6,7,8,9,10,11,13a,14,14a,15,16,16a-hexadecahydrocyclopropa[e]pyrrolo[1,2-a][1,4]diazacyclopentadecin-6-yl)carbamate], the pEC50 in experiment [2] (read-out: LE_1b (EC50, range)) was 8.30 to 9.00.

On to `C[C@@H]1CC/C=C\[C@@H]2C[C@@]2(C(=O)NS(=O)(=O)C2(C)CC2)NC(=O)[C@@H]2C[C@@H](Oc3ncccc3C(F)(F)F)CN2C(=O)[C@@H](NC(=O)OC(C)(C)C(F)(F)F)[C@H](C)C1` [Compound 1066, 1,1,1-trifluoro-2-methylpropan-2-yl ((2R,6S,7R,9R,13aS,14aR,16aS,Z)-7,9-dimethyl-14a-(((1-methylcyclopropyl)sulfonyl)carbamoyl)-5,16-dioxo-2-((3-(trifluoromethyl)pyridin-2-yl)oxy)-1,2,3,5,6,7,8,9,10,11,13a,14,14a,15,16,16a-hexadecahydrocyclopropa[e]pyrrolo[1,2-a][1,4]diazacyclopentadecin-6-yl)carbamate], for which, in experiment [2] (read-out: LE_1b (EC50, range)), the negative logarithm of the EC50 (pEC50) is 9.00 to 9.29.

On to `C[C@@H]1CC/C=C\[C@@H]2C[C@@]2(C(=O)NS(=O)(=O)C2(C)CC2)NC(=O)[C@@H]2C[C@@H](Oc3nccc(Cl)c3C(F)(F)F)CN2C(=O)[C@@H](NC(=O)OC(C)(C)C(F)(F)F)[C@H](C)C1` [Compound 1067, 1,1,1-trifluoro-2-methylpropan-2-yl ((2R,6S,7R,9R,13aS,14aR,16aS,Z)-2-((4-chloro-3-(trifluoromethyl)pyridin-2-yl)oxy)-7,9-dimethyl-14a-(((1-methylcyclopropyl)sulfonyl)carbamoyl)-5,16-dioxo-1,2,3,5,6,7,8,9,10,11,13a,14,14a,15,16,16a-hexadecahydrocyclopropa[e]pyrrolo[1,2-a][1,4]diazacyclopentadecin-6-yl)carbamate], for which the pEC50 in experiment [2] (read-out: LE_1b (EC50, range)) was 9.30 to 10.00.

In the case of `COc1cccc(O[C@@H]2C[C@H]3C(=O)N[C@]4(C(=O)NS(=O)(=O)C5(C)CC5)C[C@H]4/C=C\CC[C@@H](C)C[C@@H](C)[C@H](NC(=O)OC(C)(C)C(F)(F)F)C(=O)N3C2)n1` [Compound 1068, 1,1,1-trifluoro-2-methylpropan-2-yl ((2R,6S,7R,9R,13aS,14aR,16aS,Z)-2-((6-methoxypyridin-2-yl)oxy)-7,9-dimethyl-14a-(((1-methylcyclopropyl)sulfonyl)carbamoyl)-5,16-dioxo-1,2,3,5,6,7,8,9,10,11,13a,14,14a,15,16,16a-hexadecahydrocyclopropa[e]pyrrolo[1,2-a][1,4]diazacyclopentadecin-6-yl)carbamate], in experiment [2] (read-out: LE_1b (EC50, range)), the pEC50 is 8.30 to 9.00.

As for `C[C@@H]1CC/C=C\[C@@H]2C[C@@]2(C(=O)NS(=O)(=O)C2(C)CC2)NC(=O)[C@@H]2C[C@@H](Oc3ncccc3Cl)CN2C(=O)[C@@H](NC(=O)OC(C)(C)C(F)(F)F)[C@H](C)C1` [Compound 1069, 1,1,1-trifluoro-2-methylpropan-2-yl ((2R,6S,7R,9R,13aS,14aR,16aS,Z)-2-((3-chloropyridin-2-yl)oxy)-7,9-dimethyl-14a-(((1-methylcyclopropyl)sulfonyl)carbamoyl)-5,16-dioxo-1,2,3,5,6,7,8,9,10,11,13a,14,14a,15,16,16a-hexadecahydrocyclopropa[e]pyrrolo[1,2-a][1,4]diazacyclopentadecin-6-yl)carbamate], the pEC50 in experiment [2] (read-out: LE_1b (EC50, range)) was 9.30 to 10.00.

For the origin of these results see patent publication US9334279B2, “Hepatitis C virus inhibitors” (BRISTOL-MYERS SQUIBB COMPANY, priority 2012, dated 2016).
